According to the supplement of paper PMC10307832:

How the values were obtained:
Experiment in all cases: relative viability (nuclei count vs DMSO), 5 days (fraction); higher = more cells survive
[1] = test system: LU99A
Method in brief: (§1)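 Relative viability divides the nuclei count in treated wells by that in vehicle wells. Lung cancer cell lines were seeded in 1536-well plates, dosed by pin tool the next day, and fixed and stained after 5 days in one step with final 0.05% Triton X-100, 1% formaldehyde and 1 ug/ml Hoechst. Dosing was a single drug or a fixed anchor-drug dose plus five library-drug doses (not always all listed) in √10 steps, and values are medians of duplicate plates imaged at 4×.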

[2] = test system: NCI-H1355
Method in brief: as §1

[3] = test system: EPLC-272H
Method in brief: as §1

[4] = test system: HCC-827
Method in brief: as §1

[5] = test system: UMC-11
Method in brief: as §1

[6] = test system: PC-3 [JPC-3]
Method in brief: as §1

[7] = test system: LK-2
Method in brief: as §1

[8] = test system: SW 1573
Method in brief: as §1

[9] = test system: H3255
Method in brief: as §1

[10] = test system: SK-LU-1
Method in brief: as §1

[11] = test system: NCI-H441
Method in brief: as §1

[12] = test system: NCI-H2405
Method in brief: as §1

[13] = test system: LXF-289
Method in brief: as §1

[14] = test system: NCI-H2228
Method in brief: as §1

[15] = test system: NCI-H1993
Method in brief: as §1

[16] = test system: LCLC-97TM1
Method in brief: as §1

[17] = test system: HOP-62
Method in brief: as §1

[18] = test system: EKVX
Method in brief: as §1

[19] = test system: NCI-H3122
Method in brief: as §1

Structure (SMILES): Cc1cn(-c2cc(NC(=O)c3ccc(C)c(Nc4nccc(-c5cccnc5)n4)c3)cc(C(F)(F)F)c2)cn1 [Nilotinib] + C[C@]1(O)C[C@@H](c2nc(-c3ccc4ccc(-c5ccccc5)nc4c3)c3c(N)nccn32)C1 [Linsitinib] (partner 1 µM)
- relative viability ([1]; first compound 0.001 µM): 0.468
- relative viability ([1]; first compound 0.003162 µM): 0.59
- relative viability ([1]; first compound 0.01 µM): 0.593
- relative viability ([1]; first compound 0.03162 µM): 0.568
- relative viability ([1]; first compound 0.1 µM): 0.318
- relative viability ([2]; first compound 0.001 µM): 0.815
- relative viability ([2]; first compound 0.003162 µM): 1.11
- relative viability ([2]; first compound 0.01 µM): 1.16
- relative viability ([2]; first compound 0.03162 µM): 0.836
- relative viability ([2]; first compound 0.1 µM): 0.934
- relative viability ([3]; first compound 0.001 µM): 1.38
- relative viability ([3]; first compound 0.003162 µM): 1.34
- relative viability ([3]; first compound 0.01 µM): 1.42
- relative viability ([3]; first compound 0.03162 µM): 1.08
- relative viability ([3]; first compound 0.1 µM): 1.18
- relative viability ([4]; first compound 0.001 µM): 0.944
- relative viability ([4]; first compound 0.003162 µM): 1.08
- relative viability ([4]; first compound 0.01 µM): 1.08
- relative viability ([4]; first compound 0.1 µM): 0.941
- relative viability ([5]; first compound 0.001 µM): 1
- relative viability ([5]; first compound 0.003162 µM): 1.26
- relative viability ([5]; first compound 0.01 µM): 1.27
- relative viability ([5]; first compound 0.1 µM): 1.13
- relative viability ([6]; first compound 0.001 µM): 0.997
- relative viability ([6]; first compound 0.003162 µM): 1.1
- relative viability ([6]; first compound 0.01 µM): 1.09
- relative viability ([6]; first compound 0.03162 µM): 1.01
- relative viability ([6]; first compound 0.1 µM): 0.927
- relative viability ([7]; first compound 0.001 µM): 0.517
- relative viability ([7]; first compound 0.003162 µM): 0.515
- relative viability ([7]; first compound 0.01 µM): 0.442
- relative viability ([7]; first compound 0.03162 µM): 0.405
- relative viability ([7]; first compound 0.1 µM): 0.487
- relative viability ([8]; first compound 0.001 µM): 0.939
- relative viability ([8]; first compound 0.003162 µM): 0.935
- relative viability ([8]; first compound 0.01 µM): 0.73
- relative viability ([8]; first compound 0.03162 µM): 0.756
- relative viability ([8]; first compound 0.1 µM): 0.841
- relative viability ([9]; first compound 0.001 µM): 0.817
- relative viability ([9]; first compound 0.003162 µM): 1.06
- relative viability ([9]; first compound 0.01 µM): 1.2
- relative viability ([9]; first compound 0.03162 µM): 0.875
- relative viability ([9]; first compound 0.1 µM): 0.952
- relative viability ([10]; first compound 0.001 µM): 0.916
- relative viability ([10]; first compound 0.003162 µM): 1.25
- relative viability ([10]; first compound 0.01 µM): 1.46
- relative viability ([10]; first compound 0.03162 µM): 0.987
- relative viability ([10]; first compound 0.1 µM): 0.9
- relative viability ([11]; first compound 0.001 µM): 0.503
- relative viability ([11]; first compound 0.003162 µM): 0.588
- relative viability ([11]; first compound 0.01 µM): 0.482
- relative viability ([11]; first compound 0.1 µM): 0.512
- relative viability ([12]; first compound 0.001 µM): 0.976
- relative viability ([12]; first compound 0.003162 µM): 0.916
- relative viability ([12]; first compound 0.01 µM): 0.838
- relative viability ([12]; first compound 0.03162 µM): 0.789
- relative viability ([12]; first compound 0.1 µM): 0.74
- relative viability ([13]; first compound 0.001 µM): 0.979
- relative viability ([13]; first compound 0.003162 µM): 1.15
- relative viability ([13]; first compound 0.01 µM): 1.09
- relative viability ([13]; first compound 0.03162 µM): 0.949
- relative viability ([13]; first compound 0.1 µM): 0.92
- relative viability ([14]; first compound 0.001 µM): 0.578
- relative viability ([14]; first compound 0.003162 µM): 0.862
- relative viability ([14]; first compound 0.01 µM): 0.603
- relative viability ([14]; first compound 0.03162 µM): 0.657
- relative viability ([14]; first compound 0.1 µM): 0.623
- relative viability ([15]; first compound 0.001 µM): 0.808
- relative viability ([15]; first compound 0.003162 µM): 0.74
- relative viability ([15]; first compound 0.01 µM): 0.702
- relative viability ([15]; first compound 0.03162 µM): 0.804
- relative viability ([15]; first compound 0.1 µM): 0.769
- relative viability ([16]; first compound 0.001 µM): 0.198
- relative viability ([16]; first compound 0.003162 µM): 0.228
- relative viability ([16]; first compound 0.01 µM): 0.276
- relative viability ([16]; first compound 0.03162 µM): 0.245
- relative viability ([16]; first compound 0.1 µM): 0.247
- relative viability ([17]; first compound 0.001 µM): 0.694
- relative viability ([17]; first compound 0.003162 µM): 0.853
- relative viability ([17]; first compound 0.01 µM): 0.863
- relative viability ([17]; first compound 0.03162 µM): 0.715
- relative viability ([17]; first compound 0.1 µM): 0.744
- relative viability ([18]; first compound 0.001 µM): 0.866
- relative viability ([18]; first compound 0.003162 µM): 1.26
- relative viability ([18]; first compound 0.01 µM): 1.62
- relative viability ([18]; first compound 0.03162 µM): 0.955
- relative viability ([18]; first compound 0.1 µM): 1.09
- relative viability ([19]; first compound 0.001 µM): 1.16
- relative viability ([19]; first compound 0.003162 µM): 1.11
- relative viability ([19]; first compound 0.01 µM): 1.16
- relative viability ([19]; first compound 0.03162 µM): 0.894
- relative viability ([19]; first compound 0.1 µM): 0.833

Structure (SMILES): CN1CCN(CCOc2cc(OC3CCOCC3)c3c(Nc4c(Cl)ccc5c4OCO5)ncnc3c2)CC1 [Saracatinib] + C[C@]1(O)C[C@@H](c2nc(-c3ccc4ccc(-c5ccccc5)nc4c3)c3c(N)nccn32)C1 [Linsitinib] (partner 1 µM)
- relative viability ([1]; first compound 0.02 µM): 0.575
- relative viability ([1]; first compound 0.2 µM): 0.372
- relative viability ([1]; first compound 0.6325 µM): 0.465
- relative viability ([1]; first compound 2 µM): 0.411
- relative viability ([2]; first compound 0.02 µM): 0.793
- relative viability ([2]; first compound 0.2 µM): 0.767
- relative viability ([2]; first compound 0.6325 µM): 0.832
- relative viability ([2]; first compound 2 µM): 0.615
- relative viability ([3]; first compound 0.02 µM): 1.23
- relative viability ([3]; first compound 0.2 µM): 1.28
- relative viability ([3]; first compound 0.6325 µM): 1.12
- relative viability ([3]; first compound 2 µM): 1.07
- relative viability ([4]; first compound 0.02 µM): 0.981
- relative viability ([4]; first compound 0.2 µM): 0.739
- relative viability ([4]; first compound 0.6325 µM): 0.338
- relative viability ([4]; first compound 2 µM): 0.158
- relative viability ([5]; first compound 0.02 µM): 1.09
- relative viability ([5]; first compound 0.6325 µM): 0.956
- relative viability ([5]; first compound 2 µM): 0.8
- relative viability ([6]; first compound 0.02 µM): 0.961
- relative viability ([6]; first compound 0.2 µM): 0.891
- relative viability ([6]; first compound 0.6325 µM): 0.875
- relative viability ([6]; first compound 2 µM): 0.583
- relative viability ([7]; first compound 0.02 µM): 0.52
- relative viability ([7]; first compound 0.2 µM): 0.484
- relative viability ([7]; first compound 0.6325 µM): 0.375
- relative viability ([7]; first compound 2 µM): 0.3
- relative viability ([8]; first compound 0.02 µM): 0.846
- relative viability ([8]; first compound 0.2 µM): 0.673
- relative viability ([8]; first compound 0.6325 µM): 0.699
- relative viability ([8]; first compound 2 µM): 0.64
- relative viability ([9]; first compound 0.02 µM): 0.994
- relative viability ([9]; first compound 0.2 µM): 0.986
- relative viability ([9]; first compound 0.6325 µM): 0.647
- relative viability ([9]; first compound 2 µM): 0.233
- relative viability ([10]; first compound 0.02 µM): 0.92
- relative viability ([10]; first compound 0.2 µM): 0.752
- relative viability ([10]; first compound 0.6325 µM): 0.639
- relative viability ([10]; first compound 2 µM): 0.374
- relative viability ([11]; first compound 0.02 µM): 0.508
- relative viability ([11]; first compound 0.2 µM): 0.515
- relative viability ([11]; first compound 0.6325 µM): 0.682
- relative viability ([11]; first compound 2 µM): 0.604
- relative viability ([12]; first compound 0.02 µM): 0.87
- relative viability ([12]; first compound 0.2 µM): 0.829
- relative viability ([12]; first compound 0.6325 µM): 0.466
- relative viability ([12]; first compound 2 µM): 0.372
- relative viability ([13]; first compound 0.02 µM): 0.979
- relative viability ([13]; first compound 0.2 µM): 0.92
- relative viability ([13]; first compound 0.6325 µM): 0.968
- relative viability ([13]; first compound 2 µM): 0.963
- relative viability ([14]; first compound 0.02 µM): 0.806
- relative viability ([14]; first compound 0.2 µM): 0.704
- relative viability ([14]; first compound 0.6325 µM): 0.574
- relative viability ([14]; first compound 2 µM): 0.392
- relative viability ([15]; first compound 0.02 µM): 0.682
- relative viability ([15]; first compound 0.2 µM): 0.715
- relative viability ([15]; first compound 2 µM): 0.621
- relative viability ([16]; first compound 0.02 µM): 0.17
- relative viability ([16]; first compound 0.2 µM): 0.127
- relative viability ([16]; first compound 0.6325 µM): 0.197
- relative viability ([16]; first compound 2 µM): 0.272
- relative viability ([17]; first compound 0.02 µM): 1.02
- relative viability ([17]; first compound 0.2 µM): 0.731
- relative viability ([17]; first compound 0.6325 µM): 1.35
- relative viability ([17]; first compound 2 µM): 1.01
- relative viability ([18]; first compound 0.02 µM): 0.988
- relative viability ([18]; first compound 0.2 µM): 0.861
- relative viability ([18]; first compound 0.6325 µM): 0.866
- relative viability ([18]; first compound 2 µM): 0.318
- relative viability ([19]; first compound 0.02 µM): 1.05
- relative viability ([19]; first compound 0.6325 µM): 0.842
- relative viability ([19]; first compound 2 µM): 0.767
